Active and inactive are the calls of the source.
What was measured:
[1] = biological target: Disintegrin and metalloproteinase domain-containing protein 17 (Homo sapiens, UniProt P78536); assay: inhibition of ADAM17 substrate cleavage – biochemical, quenched FRET substrate, counter-screen for ADAM10 exosite inhibitor project, dose response (AID 743253)
[2] = potency of ADAM10 substrate cleavage blockers – biochemical, QFRET, dose response (AID 743254);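 further: ADAM10 enzyme with the DM2 quenched FRET peptide as substrate; EDANS fluorescence gain as the protease cuts the substrate; inhibitor potency against ADAM10 proteolytic activity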
[3] = blockers of bursicon-stimulated LGR2 cAMP reporter – cell-based, HEK293, CRE-luciferase reporter, cherry pick, set 2, dose response (AID 743343); format: functional;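 further: transfected cells were stimulated with diluted bursicon conditioned medium after compound addition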
BJ [4] = assay: cells; format: functional, cell-based; settings: Homo sapiens
HEK293 = assay: EBV LMP1 TES2 canonical NF-kB signalling blockers – cell-based, HEK293, luciferase, cherry-pick, dose response (AID 588343); format: functional; settings: Homo sapiens
[5] = alpha-synuclein stem-loop luciferase translation blockers – H4 neuroglioma cells, luminescence, confirmation (AID 1988); format: functional, cell-based
BJ [6] = assay: BJ-TERT-LT-ST fibroblast viability loss – cell-based, RAS-independent, luminescence, dose response (AID 1935); format: functional; settings: Homo sapiens;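 further: BJ fibroblasts immortalized with TERT plus LT and ST oncogenes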
[7] = A549 cell cytotoxicity, dose response, cytotoxicity control, plate reader, cherry-pick, antagonist series (AID 743412); format: functional, cell-based
[8] = Luminescence Cell-Based Dose Response HTS to Identify Inhibitors of 5'UTR Stem-Loop Driven Prion Protein mRNA Translation in H4 Neuroglioblastoma Cells. [Related pubchem assays: 1827 (Project Summary), 1813 (Primary HTS)]; format: functional
[9] = DRD fibroblast viability loss – cell-based, non-viral oncogenic, luminescence, dose response (AID 1934); format: functional; settings: Homo sapiens
BJ [10] = assay: BJ-TERT fibroblast viability loss – cell-based, RAS-independent, luminescence, dose response (AID 1933); format: functional; settings: Homo sapiens
cells = format: functional, cell-based
[11] = biological target: T1, Nuclear receptor subfamily 0 group B member 1 (Homo sapiens, UniProt P51843); format: functional, cell-based;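 further: HEK293T cells transfected with SF-1 and DAX-1 plus StAR promoter luciferase reporter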
T1 sequence (P51843 whole entry): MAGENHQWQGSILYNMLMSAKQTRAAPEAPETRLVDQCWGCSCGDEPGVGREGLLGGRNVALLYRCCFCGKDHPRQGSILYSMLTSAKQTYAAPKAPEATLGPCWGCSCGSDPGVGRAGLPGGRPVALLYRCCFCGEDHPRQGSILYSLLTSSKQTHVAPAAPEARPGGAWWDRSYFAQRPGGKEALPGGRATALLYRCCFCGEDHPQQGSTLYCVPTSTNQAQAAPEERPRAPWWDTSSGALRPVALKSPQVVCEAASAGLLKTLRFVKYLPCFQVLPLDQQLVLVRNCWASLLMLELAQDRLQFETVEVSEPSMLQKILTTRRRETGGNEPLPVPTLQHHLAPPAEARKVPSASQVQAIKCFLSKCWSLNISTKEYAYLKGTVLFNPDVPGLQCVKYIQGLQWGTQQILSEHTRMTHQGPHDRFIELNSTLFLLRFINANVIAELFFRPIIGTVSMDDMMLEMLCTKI

[12] = toxicity toward HepG2 liver cells – cell-based, plate reader, cherry-pick, antagonist series, cytotoxicity control, dose response (AID 743416); format: functional
[13] = viability loss in HEK293 cells – cell-based, plate reader, cherry-picked samples, cytotoxicity control, dose response (AID 743446); format: functional
[14] = blockade of melanocortin 4 receptor signaling – cell-based, plate reader, cherry pick, counter-screen for LGR2 antagonist project, dose response (AID 743444); format: functional;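 further: transfected HEK 293 cells stimulated with alpha-MSH peptide; potency of inhibitors of the alpha-MSH evoked signal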
Mu-type opioid receptor = Mu-type opioid receptor (Homo sapiens, UniProt P35372); format: functional, cell-based;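 further: U2OS cells with beta-arrestin recruitment to OPRM1 by beta-gal complementation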
Mu-type opioid receptor, sequence (P35372 whole entry): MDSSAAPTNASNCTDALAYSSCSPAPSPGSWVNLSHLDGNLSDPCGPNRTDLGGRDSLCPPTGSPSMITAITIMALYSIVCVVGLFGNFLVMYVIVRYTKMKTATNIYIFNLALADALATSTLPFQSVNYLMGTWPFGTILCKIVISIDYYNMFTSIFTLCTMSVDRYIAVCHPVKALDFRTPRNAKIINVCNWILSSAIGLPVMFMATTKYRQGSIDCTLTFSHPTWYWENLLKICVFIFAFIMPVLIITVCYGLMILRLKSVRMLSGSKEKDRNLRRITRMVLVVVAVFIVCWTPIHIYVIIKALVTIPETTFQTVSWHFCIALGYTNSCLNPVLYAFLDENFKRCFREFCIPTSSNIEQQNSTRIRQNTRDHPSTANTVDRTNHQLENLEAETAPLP

[15] = biological target: 5-hydroxytryptamine receptor 2A (Mus musculus, UniProt P35363); format: functional, cell-based;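 further: CHO-K1 cells with tagged receptor and beta-arrestin; agonist potency measured as compound-induced activation of the receptor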
5-hydroxytryptamine receptor 2A, sequence (P35363 whole entry): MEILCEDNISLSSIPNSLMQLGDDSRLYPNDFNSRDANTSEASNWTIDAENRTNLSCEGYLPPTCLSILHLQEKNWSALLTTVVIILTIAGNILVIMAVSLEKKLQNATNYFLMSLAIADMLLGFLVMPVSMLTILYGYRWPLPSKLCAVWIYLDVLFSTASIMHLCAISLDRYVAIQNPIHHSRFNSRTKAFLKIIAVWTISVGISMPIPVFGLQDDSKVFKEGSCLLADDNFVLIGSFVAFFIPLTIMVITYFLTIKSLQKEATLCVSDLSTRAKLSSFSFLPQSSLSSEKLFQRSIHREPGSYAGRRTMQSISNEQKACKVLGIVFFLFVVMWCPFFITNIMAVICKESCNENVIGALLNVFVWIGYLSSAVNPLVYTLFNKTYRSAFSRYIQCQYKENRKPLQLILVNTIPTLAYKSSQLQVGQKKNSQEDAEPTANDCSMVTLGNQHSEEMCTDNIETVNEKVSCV

[16] = biological target: T2, Low molecular weight phosphotyrosine protein phosphatase (Homo sapiens, UniProt P24666); format: functional; settings: read-out: IC50_Mean
T2 sequence (P24666 whole entry): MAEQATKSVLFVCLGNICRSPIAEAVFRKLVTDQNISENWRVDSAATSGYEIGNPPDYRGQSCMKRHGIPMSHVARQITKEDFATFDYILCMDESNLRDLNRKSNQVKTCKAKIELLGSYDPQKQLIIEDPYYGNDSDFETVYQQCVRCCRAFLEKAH

[17] = biological target: T2, Low molecular weight phosphotyrosine protein phosphatase; format: functional; settings: read-out: IC50_Mean; remark: listed apart in the source
[18] = biological target: T3, Tyrosine-protein phosphatase non-receptor type 11 (Homo sapiens, UniProt Q06124); assay: PTPN11 enzyme inhibitors – biochemical, selectivity assay for STEP inhibitor project, dose response (AID 602367); format: functional; settings: read-out: IC50_Mean
T3 sequence (Q06124 whole entry): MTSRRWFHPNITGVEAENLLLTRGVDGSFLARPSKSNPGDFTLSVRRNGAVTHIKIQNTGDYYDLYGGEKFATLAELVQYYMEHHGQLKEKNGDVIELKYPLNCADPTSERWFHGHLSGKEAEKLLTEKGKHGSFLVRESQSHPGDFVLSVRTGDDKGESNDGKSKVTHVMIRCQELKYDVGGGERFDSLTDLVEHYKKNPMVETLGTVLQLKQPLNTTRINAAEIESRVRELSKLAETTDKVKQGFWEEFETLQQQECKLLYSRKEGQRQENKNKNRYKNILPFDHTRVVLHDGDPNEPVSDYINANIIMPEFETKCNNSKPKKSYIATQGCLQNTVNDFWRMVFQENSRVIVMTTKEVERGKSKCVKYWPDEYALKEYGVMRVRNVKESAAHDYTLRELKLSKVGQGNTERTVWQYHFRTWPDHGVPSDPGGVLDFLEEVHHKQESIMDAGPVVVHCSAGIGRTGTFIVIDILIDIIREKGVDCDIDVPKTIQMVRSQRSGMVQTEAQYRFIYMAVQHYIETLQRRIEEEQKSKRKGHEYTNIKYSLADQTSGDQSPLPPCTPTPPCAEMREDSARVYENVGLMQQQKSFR

[19] = biological target: Dual specificity protein phosphatase 3 (Homo sapiens, UniProt P51452); assay: VHR phosphatase inhibition, dose response, selectivity assay for STEP inhibitor project, biochemical (AID 602374); format: functional; settings: read-out: IC50_Mean
Dual specificity protein phosphatase 3, sequence (P51452 whole entry): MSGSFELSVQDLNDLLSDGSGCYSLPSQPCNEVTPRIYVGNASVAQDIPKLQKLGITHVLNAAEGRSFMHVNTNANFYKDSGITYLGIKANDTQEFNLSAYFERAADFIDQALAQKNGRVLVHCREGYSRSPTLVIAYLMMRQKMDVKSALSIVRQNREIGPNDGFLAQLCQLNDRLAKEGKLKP

[20] = biological target: T4, Tyrosine-protein phosphatase non-receptor type 5 (Homo sapiens, UniProt P54829); assay: PTPN5 enzyme inhibition – biochemical, fluorescence intensity, uHTS hits, confirmation (AID 602372); format: functional; settings: read-out: IC50_Mean
T4 sequence (P54829 whole entry): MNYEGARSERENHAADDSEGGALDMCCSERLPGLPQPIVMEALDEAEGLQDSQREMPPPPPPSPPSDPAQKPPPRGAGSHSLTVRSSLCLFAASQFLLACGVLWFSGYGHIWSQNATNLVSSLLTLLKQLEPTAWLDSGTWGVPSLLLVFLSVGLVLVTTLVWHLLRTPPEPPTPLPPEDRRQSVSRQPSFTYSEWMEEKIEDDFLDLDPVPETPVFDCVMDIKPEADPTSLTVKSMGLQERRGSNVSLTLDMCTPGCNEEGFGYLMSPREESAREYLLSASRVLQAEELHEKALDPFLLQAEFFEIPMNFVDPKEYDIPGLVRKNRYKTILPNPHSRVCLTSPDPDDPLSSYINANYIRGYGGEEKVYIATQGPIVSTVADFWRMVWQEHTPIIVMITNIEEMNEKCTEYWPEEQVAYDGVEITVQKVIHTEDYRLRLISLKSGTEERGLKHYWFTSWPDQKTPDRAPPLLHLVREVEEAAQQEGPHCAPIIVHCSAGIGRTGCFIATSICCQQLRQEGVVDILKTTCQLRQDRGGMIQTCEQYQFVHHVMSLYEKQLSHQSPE

[21] = biological target: T5, Carboxy-terminal domain RNA polymerase II polypeptide A small phosphatase 1 (Homo sapiens, UniProt Q9GZU7); assay: CTDSP1 inhibitors, concentration-response, biochemical, absorbance readout, ultra-high-throughput screen actives (AID 540297); format: functional
T5 sequence (Q9GZU7 whole entry): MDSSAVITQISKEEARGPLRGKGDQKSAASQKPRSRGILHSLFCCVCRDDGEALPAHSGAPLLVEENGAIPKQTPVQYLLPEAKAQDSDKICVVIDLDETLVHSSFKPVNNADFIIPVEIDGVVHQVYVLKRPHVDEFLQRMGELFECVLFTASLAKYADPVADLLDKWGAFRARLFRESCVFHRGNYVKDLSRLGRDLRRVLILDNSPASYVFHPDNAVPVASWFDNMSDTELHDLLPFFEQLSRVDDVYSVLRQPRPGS

[22] = Luminescence Cell-Based Dose Retest to Confirm Inhibitors of Cancer Stem Cells. [Related pubchem assays (depositor defined):AID2717, AID2721]; format: functional; settings: Homo sapiens

Disintegrin and metalloproteinase domain-containing protein 17, sequence (P78536 whole entry, the tested form may be a part): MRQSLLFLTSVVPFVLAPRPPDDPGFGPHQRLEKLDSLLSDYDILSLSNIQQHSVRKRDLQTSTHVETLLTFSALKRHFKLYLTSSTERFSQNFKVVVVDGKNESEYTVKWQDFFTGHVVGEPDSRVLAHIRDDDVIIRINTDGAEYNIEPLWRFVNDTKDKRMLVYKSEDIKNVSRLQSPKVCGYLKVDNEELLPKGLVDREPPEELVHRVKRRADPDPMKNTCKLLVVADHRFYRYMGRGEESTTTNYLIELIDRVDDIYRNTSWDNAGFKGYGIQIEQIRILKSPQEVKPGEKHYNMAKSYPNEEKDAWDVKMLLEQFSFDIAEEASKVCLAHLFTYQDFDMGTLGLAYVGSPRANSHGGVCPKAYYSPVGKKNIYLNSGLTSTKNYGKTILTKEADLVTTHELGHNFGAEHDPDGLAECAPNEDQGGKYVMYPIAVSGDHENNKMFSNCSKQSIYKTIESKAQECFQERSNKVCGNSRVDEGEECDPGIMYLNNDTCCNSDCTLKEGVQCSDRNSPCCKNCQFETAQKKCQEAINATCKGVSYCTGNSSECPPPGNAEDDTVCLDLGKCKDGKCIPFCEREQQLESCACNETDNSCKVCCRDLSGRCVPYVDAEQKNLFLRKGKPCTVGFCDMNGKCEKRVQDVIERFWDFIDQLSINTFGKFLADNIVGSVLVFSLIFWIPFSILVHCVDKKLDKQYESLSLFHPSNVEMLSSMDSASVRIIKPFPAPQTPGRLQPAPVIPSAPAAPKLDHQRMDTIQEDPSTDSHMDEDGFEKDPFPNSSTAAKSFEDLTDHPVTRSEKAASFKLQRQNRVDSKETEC

With `NS(=O)(=O)c1ccc(NCc2cc(Cl)ccc2OCc2ccccc2F)cc1` the IC50 [1] was > 69.5 µM (inactive) and the IC50 [2] was 10.9 µM (inactive).

With `COc1ccc(-c2ccc(NC(=O)c3ccco3)cc2)nn1` the AC50 [3] was 3.8 µM (active), the EC50 (BJ [4]) was 10.1 µM (active) and the AC50 (HEK293) was 1.51 µM (active). For the same molecule, the EC50 [5] was 5.37 µM (active), the EC50 (BJ [6]) was 21.8 µM (active) and the AC50 [7] was 11.1 µM (active). The EC50 [8] was 4.34 µM (active), the EC50 [9] was 7.33 µM (active) and the EC50 (BJ [10]) was 5.74 µM (active). For the same molecule, the IC50 (cells) was > 67.6 µM (inactive), the IC50 [11] was > 67.6 µM (inactive) and the AC50 [12] was 15.2 µM (active). For the same molecule, the AC50 [13] was 21.9 µM (active) and the AC50 [14] was 3.59 µM (active).

For `O=C(c1ccco1)N1CCN(Cc2ccc(F)cc2)CC1`, the EC50 (Mu-type opioid receptor) was 92.5 µM (inactive) and the EC50 [15] was 7.5 µM (active).

In the case of `CCc1ccc(CN2CCN(C(=O)c3ccco3)CC2)cc1`, the EC50 (Mu-type opioid receptor) is reported as 92.5 µM (inactive) and the EC50 [15] is reported as 0.219 µM (active).

For `CCCCC(=O)Nc1ccc(C(=O)NNC(=O)c2ccc(C)c(Br)c2)cc1`, the IC50 [16] was 16.6 µM (active), the IC50 [17] was 17.2 µM (active) and the IC50 [18] was 3.17 µM (active). For the same molecule, the IC50 [19] was 4.58 µM (active), the IC50 [20] was 28 µM (inactive) and the IC50 [21] was 10.2 µM (active).

For `Cc1ccc(S(=O)(=O)Nc2ccc(-c3nnc(SCc4ccccc4Cl)o3)cc2)cc1`, the IC50 [1] was > 69.5 µM (inactive), the IC50 [2] was > 69.5 µM (inactive) and the AC50 [22] was 3.88 µM (active).

From ChEMBL document CHEMBL1201862, “PubChem BioAssay data set” (2004)
